Measurements from US10077268B2, “FXR agonists and methods for making and using” (Salk Institute for Biological Studies, priority 2014, dated 2018).
“Also recorded” adds a separate entry of the source.

Assays:
[1] = tested on: diet-induced obesity (DIO) mice; assay: Chronic oral treatment of diet-induced obesity (DIO) mice; type: in vivo; conditions: for glucose tolerance and insulin sensitivity (GTT, ITT): DIO mice, PO 5 weeks
Method: FIGS. 2A-2G are graphs illustrating the reduction of diet-induced obesity and improvement in metabolic homeostasis with fexaramine Mice were fed a high fat diet (HFD) for 14 weeks and then administered daily oral injections of vehicle (open boxes) or fexaramine (100 mg/kg) (solid boxes) for 5 weeks with HFD. Data represent the mean±STD. Statistical analysis was performed with the Student's t test (*p<0.05, **p<0.01).
FIG. 4A is a line graph showing the effects of fexaramine at various dosage levels on the body weight of mice fed a HFD for 14 weeks and then administered daily oral injections of vehicle or fexaramine (10, 50 or 100 mg/kg) for 5 weeks with HFD. Data represent the mean±STD. Statistical analysis was performed with the Student's t test (*p<0.05, **p<0.01).
(§1) Mice were fed HFD for 14 weeks and then administered vehicle or fexaramine (100 mg/kg) daily by oral administration for 5 weeks with HFD. Data represent the mean±STD. Statistical analysis was performed with the Student's t test (*p<0.05, **p<0.01).
The physiological effects of fexaramine in established obesity (diet-induced obesity, DIO) models were evaluated. C57BL/6J mice were fed a diet of 60% fat for 14 weeks and then treated PO with vehicle or fexaramine (100 mg/kg) for 5 weeks.

[2] = tested on: gene and protein expression in BAT, ileum, liver and adipose tissues; assay: Tissue gene and protein expression in treated DIO mice; type: in vivo
Method: as §1
FIGS. 7A-7H show a comparative expression chart and bar charts illustrating that fexaramine increased endogenous FGF15 signaling and changes in BA composition. Mice were fed HFD for 14 weeks and then administered daily oral injections of vehicle or fexaramine (100 mg/kg) for 5 weeks with HFD. In the bar graphs, open bars represent vehicle treatment and solid bars represent fexaramine treatment, and data represent the mean±STD. Statistical analysis was performed with the Student's t test (*p<0.05, **p<0.01).
Mice were fed on HFD for 14 weeks and subsequently subjected to daily PO injection of vehicle or fexaramine (100 mg/kg) for 5 weeks with HFD. In the bar graphs, open bars are vehicle, solid bars of fexaramine, and data represent the mean±STD. Statistical analysis was performed with the Student's t test (*p<0.05, **p<0.01).
Mice were fed HFD for 14 weeks and then subjected to daily PO injection of vehicle (open bar in bar graphs) or fexaramine (100 mg/kg) (solid bar in bar graphs) for 5 weeks with HFD.

FXR-null mice = assay: HFD-fed FXR-null mice; type: in vivo; conditions: 100 mg/kg 5 weeks
Method: Data represent the mean±SD. Statistical analysis was performed with the Student's t test. *p<0.05, **p<0.01.

[3] = tested on: serum bile acid composition; assay: Serum bile acid composition by mass spectrometry; type: in vivo, mice
Method: Mice fed a HFD for 14 weeks were maintained on a HFD and treated with vehicle or fexaramine (100 mg/kg/day per os for 5 week). Serum bile acid composition was determined by mass spectrometry. N.D not determined.

With `COC(=O)/C=C/c1cccc(N(Cc2ccc(-c3ccc(N(C)C)cc3)cc2)C(=O)C2CCCCC2)c1` [fexaramine] the ambulatory counts ([1]; 100 mg/kg PO 5 weeks) was “more active than control mice”, the “intestinal toxicity (histology of ileum and colon)” value ([1]; 100 mg/kg PO 5 weeks) was “no signs of intestinal toxicity” and the “overall fat mass (MRI)” value ([1]; 100 mg/kg PO 5 weeks) was “reduced overall fat mass”. For the same compound, the respiratory exchange ratio ([1]; 100 mg/kg PO 5 weeks) was “No changes”, the serum lactate levels ([1]; 100 mg/kg PO 5 weeks) was “significantly decreased” and the “serum levels of inflammatory cytokines TNFα, IL-1α, IL-1β, IL-17 and MCP-1” value ([1]; 100 mg/kg PO 5 weeks) was “markedly decreased”. For the same compound, the “wet weights of subcutaneous (inguinal) and visceral (gonadal and mesenteric) adipose depots” value ([1]; 100 mg/kg PO 5 weeks) was “significant reductions”, the serum lactate levels ([1]; 100 mg/kg PO 5 weeks, listed as Fex) was “significantly reduced” and the “prevention of weight gain, dose dependence” value ([1]; 10, 50 or 100 mg/kg PO 5 weeks) was “dose-dependent manner”. The “glucose tolerance and insulin sensitivity (GTT, ITT)” value [1] was “improved glucose clearance; also recorded: improved insulin sensitivity”, the “glucose tolerance and insulin sensitivity (GTT, ITT)” value ([1]; listed as Fex) was “dose-dependent improvements” and the weight gain ([1]; HFD 14 weeks, then 100 mg/kg PO 5 weeks) was “prevented weight gain”. For the same compound, the “cross-sectional area of adipocytes in visceral depots (gonadal, mesenteric)” value ([1]; chronic treatment) was “markedly reduced”, the “weight gain at the highest dose” value ([1]; highest dose) was “almost completely abrogated” and the “accumulation of lipid vesicles in brown adipose tissue (BAT)” value ([1]; histology) was “markedly reduced”. The hepatic triglycerides ([1]; liver) was “marked decrease”, the “lipid droplets in liver tissue (histology)” value ([1]; liver) was “reduction in lipid droplets” and the “serum alanine aminotransferase (ALT) levels” value ([1]; serum) was “decreased”. For the same compound, the “glucose, insulin, leptin, cholesterol and resistin levels” value ([1]; serum, 100 mg/kg PO 5 weeks) was “reduced glucose, insulin, leptin, cholesterol, and resistin levels”, the food intake ([1]; versus vehicle-treated control mice) was “not attributable to difference in food intake” and the “carbon dioxide production (VCO2)” value ([1]; weight-matched DIO mice) was “exhaled more carbon dioxide”. For the same compound, the “oxygen consumption (VO2)” value ([1]; weight-matched DIO mice) was “consistently higher oxygen consumption”, the “D102, downstream target of TGR5, in brown adipose tissue” value ([2]; BAT) was “induce” and the PKA activity ([2]; BAT) was “increased PKA activity”. For the same compound, the “expression of ERRy, PGC-1α, PGC-1β and target genes in BAT” value ([2]; BAT) was “induction”, the “phosphorylation level of p38” value ([2]; BAT) was “increased the phosphorylation level of p38” and the “FGF15 expression in intestine” value ([2]; RNA-Seq, ileal FXR target genes) was “dramatically up-regulated”. The “OXPHOS activity, transcriptional changes in inguinal, gonadal and brown adipose depots” value ([2]; RNA-sequencing) was “selectively enhance OXPHOS activity only in BAT”, the “HSL phosphorylation and serum levels of free fatty acids” value ([2]; adipose depots, serum) was “pronounced increase” and the “serum catecholamine levels and β3-adrenergic receptor expression” value ([2]; chronic treatment) was “increased serum catecholamine levels and β3-adrenergic receptor expression”. For the same compound, the “S6K phosphorylation (mTORC1 pathway)” value ([2]; gonadal WAT) was “reduced S6K phosphorylation”, the “levels of IKK-ε and TANK-binding kinase 1 (TBK1)” value ([2]; gonadal adipose tissue) was “reduced levels” and the “expression of brown fat-like signature genes” value ([2]; inguinal adipose tissue) was “increased the expression”. For the same compound, the “respiratory capacity in the stromal vascular fraction” value ([2]; inguinal adipose tissue) was “increased respiratory capacity”, the “abundance of multi-locular, UCP1-expressing adipocytes” value ([2]; inguinal adipose tissue, immunohistochemistry) was “substantial increase” and the “expression of mucosal defense genes Occludin and Muc2” value ([2]; intestine) was “increased expression”. For the same compound, the “expression of CYP8B1 and CYP27A1” value ([2]; liver) was “not affected”, the “expression of liver FXR target genes SHP and BSEP” value ([2]; liver) was “not altered” and the “hepatic CYP7A1 expression, mRNA and protein level” value ([2]; liver) was “significantly repressed”. For the same compound, the “hepatic expression of gluconeogenic and lipogenic genes” value ([2]; liver) was “reduced hepatic expression”, the “circulating FGF15” value ([2]; serum) was “increase in circulating FGF15” and the “Fex-induced changes in gene expression and improvements in metabolic homeostasis in FXR null mice” value (FXR-null mice) was “abrogated”. The “bile acid pool size” value [3] was “reducing the bile acid pool size”, the “fraction of lithocholic acid among circulating bile acids” value [3] was “increasing the fraction of the secondary bile acid, lithocholic acid” and the “fraction of taurocholic acid among circulating bile acids” value [3] was “decreasing the fraction of taurocholic acid”. The “ratio of unconjugated to conjugated cholic acid” value ([3]; 100 mg/kg PO 5 weeks) was “remarkably increased”.
